Test results reported in ChEMBL document CHEMBL1139075, “Synthesis and antitubercular activity of quaternized promazine and promethazine derivatives” (Bioorg Med Chem Lett, 2007).

How the values were obtained:
[1] = system: Mycobacterium tuberculosis; test: Antitubercular activity against non-replicating Mycobacterium tuberculosis H37Rv by LORA; type: functional
[2] = system: Mycobacterium tuberculosis; test: Antitubercular activity against actively growing Mycobacterium tuberculosis H37Rv by microplate alamar blue assay; type: functional
Vero = test: Cytotoxicity against Vero cells after 3 days; type: cell-based; settings: Chlorocebus sabaeus, 72 h

Compound | MIC [1] [µM] | MIC [2] [µM] | IC50 (Vero) [µM]
C[N+](C)(CCCN1c2ccccc2Sc2ccc(Cl)cc21)Cc1ccc([N+](=O)[O-])cc1 | 27.5 | 12.3 | –
CC(CN1c2ccccc2Sc2ccccc21)[N+](C)(C)Cc1ccc([N+](=O)[O-])cc1 (stereo unspecified) | > 128 | 20.7 | –
C[N+](C)(CCCN1c2ccccc2Sc2ccccc21)Cc1ccc(Cl)cc1 | 15.4 | 9.31 | > 64
C[N+](C)(CCCN1c2ccccc2Sc2ccccc21)Cc1ccccc1Cl | 24.6 | 14.3 | –
C[N+](C)(CCCN1c2ccccc2Sc2ccccc21)Cc1ccc(F)cc1 | 32.9 | 14.6 | –
COc1ccc(C[N+](C)(C)C(C)CN2c3ccccc3Sc3ccccc32)cc1 (stereo unspecified) | 105 | 14.4 | –
Cc1ccc(C[N+](C)(C)CCCN2c3ccccc3Sc3ccccc32)cc1 | 15 | 9.9 | > 128
C[N+](C)(CCCN1c2ccccc2Sc2ccc(Cl)cc21)Cc1ccccc1 | 11.1 | 7.33 | > 128
C[N+](C)(CCCN1c2ccccc2Sc2ccc(C(F)(F)F)cc21)Cc1ccccc1Cl | 7.5 | 7.3 | > 128
C[N+](C)(CCCN1c2ccccc2Sc2ccc(C(F)(F)F)cc21)Cc1ccc(F)cc1 | 10 | 6.4 | > 128
C[N+](C)(CCCN1c2ccccc2Sc2ccc(Cl)cc21)Cc1cccc(Cl)c1 | 6.7 | 4.5 | > 128
C[N+](C)(CCCN1c2ccccc2Sc2ccc(Cl)cc21)Cc1ccc(F)cc1 | 13.7 | 7.6 | > 128
Cc1ccc(C[N+](C)(C)CCCN2c3ccccc3Sc3ccc(C(F)(F)F)cc32)cc1 | 6.9 | 6.8 | > 128
CC(CN1c2ccccc2Sc2ccccc21)[N+](C)(C)Cc1ccccc1 (stereo unspecified) | 99.7 | 31.6 | –
C[N+](C)(CCCN1c2ccccc2Sc2ccc(C(F)(F)F)cc21)Cc1ccc(Cl)cc1 | 6.1 | 3.81 | > 128
C[N+](C)(CCCN1c2ccccc2Sc2ccc(Cl)cc21)Cc1ccc(Cl)cc1 | 6.7 | 6.06 | > 128
C[N+](C)(CCCN1c2ccccc2Sc2ccc(Cl)cc21)Cc1ccccc1Cl | 7.6 | 5.6 | > 128
Cc1ccc(C[N+](C)(C)CCCN2c3ccccc3Sc3ccc(Cl)cc32)cc1 | 7.5 | 4.7 | > 128
C[N+](C)(CCCN1c2ccccc2Sc2ccccc21)Cc1cccc(Cl)c1 | 13 | 7.5 | > 128
Cc1ccc(C[N+](C)(C)C(C)CN2c3ccccc3Sc3ccccc32)cc1 (stereo unspecified) | 34.7 | 12.1 | –
C[N+](C)(CCCN1c2ccccc2Sc2ccc(C(F)(F)F)cc21)Cc1cccc(Cl)c1 | 5.8 | 3.8 | > 128
COc1ccc(C[N+](C)(C)CCCN2c3ccccc3Sc3ccc(Cl)cc32)cc1 | 11.9 | 8.5 | > 128
C=CC[N+](C)(C)CCCN1c2ccccc2Sc2ccc(Cl)cc21 | 106 | 30.6 | –
